Reference: article PMC7664879, “Discovery of 12O—A Novel Oral Multi-Kinase Inhibitor for the Treatment of Solid Tumor” (Molecules, 2020)

Legend:
KDR (VEGFR2) = target: T1, KDR (VEGFR2) (Homo sapiens, UniProt P35968); assay: Kinase inhibition assay (Eurofins KinaseProfiler); assay type: biochemical; settings: ATP at Km
T1 construct: purchased Eurofins (KinaseProfiler service)
Procedure: (§1) Kinase inhibition profiles were determined using KinaseProfiler services provided by Eurofins, and ATP concentrations used are the Km of corresponding kinases.
KDR (h) was incubated with 8 mM MOPS pH 7.0, 0.2 mM EDTA, 0.33 mg/mL myelin basic protein, 10 mM MgAcetate and [gamma-33P]-ATP.
(§2) All the reactions above were initiated by the addition of the Mg/ATP mix. After incubation for 40 min at room temperature, the reaction was stopped by the addition of phosphoric acid to a concentration of 0.5%. An amount of 10 µL of the reaction was then spotted onto a P30 filtermat and washed four times for 4 min in 0.425% phosphoric acid and once in methanol prior to drying and scintillation counting.

Src(1-530)(h) = target: T2, Src(1-530)(h) (Homo sapiens, UniProt P12931); assay: Kinase inhibition assay (Eurofins KinaseProfiler); assay type: biochemical; settings: ATP at Km
T2 construct: Src (1-530) (h) was incubated with; purchased Eurofins (KinaseProfiler service)
T2 sequence (P12931 1-530): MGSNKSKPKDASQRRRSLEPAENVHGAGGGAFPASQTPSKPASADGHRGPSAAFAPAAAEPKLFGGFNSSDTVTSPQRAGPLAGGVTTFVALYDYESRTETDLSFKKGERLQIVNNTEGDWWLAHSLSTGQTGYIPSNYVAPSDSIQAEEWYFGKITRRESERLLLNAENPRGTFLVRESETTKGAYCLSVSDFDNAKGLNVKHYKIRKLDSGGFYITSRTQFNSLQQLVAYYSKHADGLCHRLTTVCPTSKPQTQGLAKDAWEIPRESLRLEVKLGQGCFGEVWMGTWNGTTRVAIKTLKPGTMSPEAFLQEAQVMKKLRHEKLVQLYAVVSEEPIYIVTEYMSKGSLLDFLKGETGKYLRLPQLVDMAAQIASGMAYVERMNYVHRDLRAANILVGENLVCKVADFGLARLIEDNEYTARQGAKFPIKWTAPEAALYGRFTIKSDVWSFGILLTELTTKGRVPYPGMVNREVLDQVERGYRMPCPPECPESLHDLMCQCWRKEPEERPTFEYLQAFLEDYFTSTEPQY
Procedure: as §1
Src (1-530) (h) was incubated with 8 mM MOPS pH 7.0, 0.2 mM EDTA, 500 uM GGEEEEYFELVKKKK, 10 mM MgAcetate and [gamma-33P]-ATP.
as §2

SiHa cells = assay: Cell cycle assay (propidium iodide, flow cytometry); assay type: cell-based, human; settings: 0.04 μM, 24 h
Procedure: To understand how 12O inhibited cell proliferation, cell cycle analysis was performed. The effect of 12O on cell cycle distribution was assessed in the SiHa cell lines. […] Of note, 12O at 0.04 μM was able to increase the proportion of the cells in the G2/M phase from approximately 16.0 ± 1.3% (DMSO) to 22.3 ± 0.7%, and decreased the corresponding fraction of the cells in the S phase from about 22.8 ± 0.4 % (DMSO) to 16.1 ± 1.1 % (Figure 3).
Cells were plated on 6-well culture plates at a density of 5 × 10^5 cells/mL. The cells were treated with the indicated concentrations of 12O or ribociclib for 24 h after their adherence. Cells were washed with PBS for three times and then fixed with ice cold 75% ethanol overnight. The fixed cells were then washed with PBS and stained with propidium iodide ([…]) in the presence of RNase A (0.5 mg) for 30 min at 37 °C. The stained cells were then subjected to flow cytometry (Becton Dickinson (BD), San Jose, CA, USA.) for cell cycle analysis.

SiHa xenograft = SiHa xenograft mouse model, oral dosing; assay type: in vivo; settings: for Tumor growth inhibition (TGI): SiHa xenograft mice, every day
Procedure: Based on a desirable set of in vitro properties, 12O was finally selected for further in vivo evaluation. We proceeded to test the antitumor efficacy of 12O in SiHa xenograft mice. Animals were orally given three doses (5, 10, and 20 mg Kg^−1) of 12O, one dose (20 mg Kg^−1) of cisplatin (positive control), or vehicle (control) every day. […] Of note, In Figure 5c, an obvious decrease in tumor size was also observed at the end of observation. The average tumor weight (Figure 5d) of the 12O-treated group was less than that of cisplatin. HE staining was further performed to identify the efficacy of 12O (Figure 5e). […] Additional kinase activities of 12O intimately associated with the growth, survival, and metastasis in tumor cells, may contribute to the antitumor activity, but may also cause side effects. Multi-target kinase inhibitor extensively used in clinic cancer therapy, while hampered by associated adverse reactions and side-effect. Thus, further evidence is needed. An in-depth study of compound 12O is ongoing in our laboratory and will be reported in due course.
All animal studies were conducted under the approval of the Experimental Animal Management Committee of Nankai University (No. NKUEC20190228). Six- to eight-week-old female BALB/c nude mice were purchased from Beijing HFK Bioscience Company. Mice were fed in an SPF-level laboratory animal room. The mice were kept in independent ventilation cages with autoclaved corncobs at the bottom of the cage as bedding. The dimensions of the cages were 390 × 180 × 180 mm. Environmental factors: Average air temperature ranged from 20 to 26 °C with average relative air humidity ranging from 40 to 70%. Noise was below 60 decibels. Ventilation times were more than 15 times/hour. Air velocity was 0.1~0.2m/s. The ammonia concentration was below 14/(mg/m³). Working illumination was 150~300LX and animal illumination was 15~20LX. The nutritional components of mouse food include: water content: ≤10%, crude protein: ≥18%, crude fat: ≥4%, crude fiber: ≥5%, minerals: ≥4%, calcium: 1.0–1.8%, Phosphorus: 0.6-1.2%. The water that mice drink is sterilized by the animal drinking system.
Cells SiHa were harvested during the exponential-growth phase, washed 3 times with serum-free medium, followed by resuspension at a concentration of 2 × 10^6 per mL. A total of 100 μL of cell suspension was injected into SCID mice subcutaneously. After the tumors had grown to 100−150 mm^3, all the mice were randomized into 5 groups (5 mice for each group, 25 mice total). The mice were treated daily via oral gavage administration with 12O (5, 10, or 20 mg kg^−1 d^−1), cisplatin (20 mg kg^−1 d^−1), or vehicle. […] Mice were monitored for side effects every day. Body weights and tumor sizes were determined every other day and volume was also observed. At the end-point of the study, all mice had survived. Mice were euthanized and the subcutaneous tumor tissues were stripped and collected. Tumor measurements were calculated using a digital vernier caliper, and the volumes were determined using the following calculation: (short^2) × long × 0.5. Inhibition rate of tumor growth was calculated using the following formula: 100 × {1 − [(tumor volume final-tumor volume initial) for 12O-treated group]/ [(tumor volume final-tumor volume initial) for the vehicle-treated group]} [23].

T1 sequence (P35968 20-1356): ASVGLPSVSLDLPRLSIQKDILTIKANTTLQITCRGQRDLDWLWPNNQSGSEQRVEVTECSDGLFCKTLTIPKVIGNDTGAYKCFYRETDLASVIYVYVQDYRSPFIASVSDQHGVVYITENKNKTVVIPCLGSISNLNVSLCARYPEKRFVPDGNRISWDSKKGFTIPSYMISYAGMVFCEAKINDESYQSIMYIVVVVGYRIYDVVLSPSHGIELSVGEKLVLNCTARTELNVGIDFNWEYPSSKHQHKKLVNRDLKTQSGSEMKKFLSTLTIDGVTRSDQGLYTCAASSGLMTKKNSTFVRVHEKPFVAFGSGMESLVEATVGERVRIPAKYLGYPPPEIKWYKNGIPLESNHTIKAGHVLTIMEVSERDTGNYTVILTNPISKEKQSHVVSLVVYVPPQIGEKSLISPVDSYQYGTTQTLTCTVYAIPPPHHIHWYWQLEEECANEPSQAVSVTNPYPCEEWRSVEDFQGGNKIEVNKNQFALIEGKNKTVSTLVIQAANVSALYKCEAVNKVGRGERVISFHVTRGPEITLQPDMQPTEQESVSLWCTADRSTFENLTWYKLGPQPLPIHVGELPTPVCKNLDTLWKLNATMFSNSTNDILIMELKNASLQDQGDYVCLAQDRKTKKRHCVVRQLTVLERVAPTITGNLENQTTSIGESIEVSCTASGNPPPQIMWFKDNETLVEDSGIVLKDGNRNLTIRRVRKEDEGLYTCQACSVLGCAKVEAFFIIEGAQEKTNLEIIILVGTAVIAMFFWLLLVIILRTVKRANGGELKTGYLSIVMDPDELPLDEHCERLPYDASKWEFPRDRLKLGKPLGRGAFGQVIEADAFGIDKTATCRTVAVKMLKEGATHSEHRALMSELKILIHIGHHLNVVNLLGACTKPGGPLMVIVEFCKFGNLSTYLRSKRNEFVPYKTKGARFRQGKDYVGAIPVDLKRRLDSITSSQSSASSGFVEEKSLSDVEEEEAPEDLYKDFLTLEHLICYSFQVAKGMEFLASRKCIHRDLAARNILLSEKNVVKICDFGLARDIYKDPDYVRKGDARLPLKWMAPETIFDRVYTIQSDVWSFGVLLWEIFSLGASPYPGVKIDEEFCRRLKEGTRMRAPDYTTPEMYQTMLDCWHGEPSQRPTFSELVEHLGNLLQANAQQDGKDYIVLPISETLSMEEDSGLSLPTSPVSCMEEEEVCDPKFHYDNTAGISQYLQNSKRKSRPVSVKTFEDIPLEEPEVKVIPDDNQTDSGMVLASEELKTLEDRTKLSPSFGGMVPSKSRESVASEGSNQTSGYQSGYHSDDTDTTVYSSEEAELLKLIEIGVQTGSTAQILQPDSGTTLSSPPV

## CC(C)n1nnc2ccc(-c3nc(Nc4ccc(CNC(=O)C5(C(=O)Nc6ccccc6)CC5)cc4)ncc3F)cc21 [12O]
KDR (VEGFR2)
  inhibition at 1 µM: 81%
Src(1-530)(h)
  inhibition at 1 µM: 46%
SiHa cells; DMSO 16.0 ± 1.3%
  proportion of the cells in the G2/M phase: 22.3 ± 0.7%
SiHa cells; DMSO 22.8 ± 0.4 %
  fraction of the cells in the S phase: 16.1 ± 1.1%
SiHa xenograft; 5 mg/kg oral
  Tumor growth inhibition (TGI): 51.25%
SiHa xenograft; 10 mg/kg oral
  Tumor growth inhibition (TGI): 65.52%
SiHa xenograft; 20 mg/kg oral
  Tumor growth inhibition (TGI): 79.29%
SiHa xenograft; SiHa xenograft mice, 5, 10 and 20 mg/kg oral daily
  toxicity in treated mice (body weight): without obvious toxicity
